Test [1] addresses c-Raf (Homo sapiens, UniProt P04049). Kind of test: Luciferase-coupled chemiluminescence kinase assay (ATP consumption), c-Raf. Format: biochemical. In a few lines:
(§1)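 Enzyme ([…]) was pre-incubated with compound for 30 min at room temperature in 20 mM Tris pH 7.5, 10 mM MgCl2, 0.03% TX-100, 1 mM DTT. ATP was added and the reaction ran 3 h at ambient temperature. Remaining ATP was read by luciferase-luciferin chemiluminescence, giving IC50 values.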

Test [2] addresses B-Raf (Homo sapiens, UniProt P15056). The experiment in a line: Luciferase-coupled chemiluminescence kinase assay (ATP consumption), B-Raf. Type of test: biochemical. Put shortly:
as §1

The mark [3] stands for this setting: read-out: cRaf-1 (inhibition indicated as IC50).
[4] abbreviates: read-out: bRaf (inhibition indicated as IC50).

The text below walks through data of US7846959B2, “Raf modulators and methods of use” (Exelixis, Inc., priority 2004, dated 2010).

Like-named read-outs stand apart in the source and are kept apart here.

B-Raf, sequence (P15056 whole entry): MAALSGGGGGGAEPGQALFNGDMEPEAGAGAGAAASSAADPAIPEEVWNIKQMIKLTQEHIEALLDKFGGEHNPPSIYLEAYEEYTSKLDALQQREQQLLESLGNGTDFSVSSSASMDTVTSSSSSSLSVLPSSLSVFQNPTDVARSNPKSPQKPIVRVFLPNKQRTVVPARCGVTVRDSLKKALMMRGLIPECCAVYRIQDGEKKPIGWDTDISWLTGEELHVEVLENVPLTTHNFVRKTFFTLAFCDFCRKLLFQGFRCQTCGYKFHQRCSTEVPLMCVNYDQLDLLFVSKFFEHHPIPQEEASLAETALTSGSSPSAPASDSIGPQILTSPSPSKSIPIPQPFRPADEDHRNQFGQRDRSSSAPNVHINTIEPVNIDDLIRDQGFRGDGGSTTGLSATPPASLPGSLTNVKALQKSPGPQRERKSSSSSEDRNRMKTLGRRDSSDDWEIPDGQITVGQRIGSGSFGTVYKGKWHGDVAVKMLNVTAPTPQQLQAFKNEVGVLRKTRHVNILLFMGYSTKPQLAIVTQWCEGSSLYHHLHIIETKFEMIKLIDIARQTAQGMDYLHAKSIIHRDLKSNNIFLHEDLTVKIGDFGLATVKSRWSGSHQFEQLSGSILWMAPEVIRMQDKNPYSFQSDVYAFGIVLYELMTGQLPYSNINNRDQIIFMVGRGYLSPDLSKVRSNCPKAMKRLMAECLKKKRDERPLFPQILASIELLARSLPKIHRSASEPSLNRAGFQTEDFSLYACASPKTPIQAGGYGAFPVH
c-Raf, sequence (P04049 whole entry): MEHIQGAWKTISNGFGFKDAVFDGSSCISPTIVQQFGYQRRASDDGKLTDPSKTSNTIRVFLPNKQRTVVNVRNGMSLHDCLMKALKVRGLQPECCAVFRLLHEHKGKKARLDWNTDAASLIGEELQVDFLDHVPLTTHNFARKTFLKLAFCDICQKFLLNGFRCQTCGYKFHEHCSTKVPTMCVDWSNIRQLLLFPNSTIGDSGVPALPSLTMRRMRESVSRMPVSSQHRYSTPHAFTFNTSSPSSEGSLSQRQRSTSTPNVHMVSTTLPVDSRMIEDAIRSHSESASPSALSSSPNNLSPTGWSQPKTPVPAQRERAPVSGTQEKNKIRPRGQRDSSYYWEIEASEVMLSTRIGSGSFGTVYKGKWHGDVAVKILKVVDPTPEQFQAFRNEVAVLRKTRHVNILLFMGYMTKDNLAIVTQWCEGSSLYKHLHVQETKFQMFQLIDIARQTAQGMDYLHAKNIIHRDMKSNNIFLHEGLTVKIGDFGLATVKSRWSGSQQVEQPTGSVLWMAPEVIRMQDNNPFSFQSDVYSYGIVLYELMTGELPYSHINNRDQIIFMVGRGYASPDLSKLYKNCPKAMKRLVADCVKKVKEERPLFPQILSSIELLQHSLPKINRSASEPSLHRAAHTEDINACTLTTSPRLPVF

By IC50 is commonly meant the midpoint of a concentration-inhibition curve. In the case of `COC(=O)Nc1nc2cc(C3(O)c4ccccc4C(=O)N3c3cccc(C)c3)ccc2[nH]1` (centres unmarked) [Entry 115, methyl {5-[1-hydroxy-2-(3-methylphenyl)-3-oxo-2,3-dihydro-1H-isoindol-1-yl]-1H-benzimidazol-2-yl}carbamate], the IC50 in test [1] (read-out: cRaf-1 IC50) and in test [2] (read-out: bRaf IC50) was less than 100 nM in each case.

In the case of `C#Cc1cc(N2C(=O)c3ccccc3C2(O)c2ccc3[nH]c(NC(=O)OC)nc3c2)ccc1F` (centres unmarked) [Entry 226, methyl {5-[2-(3-ethynyl-4-fluorophenyl)-1-hydroxy-3-oxo-2,3-dihydro-1H-isoindol-1-yl]-1H-benzimidazol-2-yl}carbamate], the half-inhibitory concentration (IC50) in test [1] (read-out: cRaf-1 IC50) and in test [2] (read-out: bRaf IC50) was less than 100 nM each time.

Turning to `COC(=O)Nc1nc2ccc(C3(O)c4ccccc4C(=O)N3c3ccc(Cl)c(Cl)c3F)cc2[nH]1` (centres unmarked) [Entry 228, methyl {6-[2-(3,4-dichloro-2-fluorophenyl)-1-hydroxy-3-oxo-2,3-dihydro-1H-isoindol-1-yl]-1H-benzimidazol-2-yl}carbamate], the IC50 in test [1] (read-out: cRaf-1 IC50) and in test [2] (read-out: bRaf IC50) was less than 100 nM each time.

As to `O=C1c2ccccc2C(O)(c2ccc3[nH]c(Nc4ncc(Cl)cn4)nc3c2)N1c1cccc(Cl)c1F` (centres unmarked) [Entry 384, 2-(3-chloro-2-fluorophenyl)-3-{2-[(5-chloropyrimidin-2-yl)amino]-1H-benzimidazol-5-yl}-3-hydroxy-2,3-dihydro-1H-isoindol-1-one], the IC50 in test [1] (setting [3]) and in test [2] (setting [4]) was less than 100 nM each time.

On to `Cc1cccc(N2C(=O)c3ccccc3C2(O)c2ccc3nc(Nc4cnccn4)[nH]c3c2)c1` (centres unmarked) [Entry 388, 3-hydroxy-2-(3-methylphenyl)-3-[2-(pyrazin-2-ylamino)-1H-benzimidazol-6-yl]-2,3-dihydro-1H-isoindol-1-one], for which the half-maximal inhibitory concentration (IC50) in test [1] (setting [3]) and in test [2] (setting [4]) was less than 100 nM each time.

In the case of `CCOC1(c2ccc3[nH]c(NC(=O)OC)nc3c2)c2ccccc2C(=O)N1Cc1ccccc1` (centres unmarked) [Entry 92, methyl {5-[1-(ethyloxy)-3-oxo-2-(phenylmethyl)-2,3-dihydro-1H-isoindol-1-yl]-1H-benzimidazol-2-yl}carbamate], the IC50 in test [1] (read-out: cRaf-1 IC50) and in test [2] (read-out: bRaf IC50) was 100 to 1000 nM each time.

For `CCN(c1ccccc1)c1cccc(N2C(=O)c3ccccc3C2(O)c2ccc3[nH]c(NC(=O)OC)nc3c2)c1` (centres unmarked) [Entry 328, methyl [5-(2-{3-[ethyl(phenyl)amino]phenyl}-1-hydroxy-3-oxo-2,3-dihydro-1H-isoindol-1-yl)-1H-benzimidazol-2-yl]carbamate], the IC50 in test [1] (setting [3]) and in test [2] (setting [4]) was 100 to 1000 nM throughout.

Regarding `COC(=O)Nc1nc2cc(C3(O)c4ccccc4C(=O)N3CC3CC3)ccc2[nH]1` (centres unmarked) [Entry 153, methyl {5-[2-(cyclopropylmethyl)-1-hydroxy-3-oxo-2,3-dihydro-1H-isoindol-1-yl]-1H-benzimidazol-2-yl}carbamate], the IC50 in test [1] (read-out: cRaf-1 IC50) and in test [2] (read-out: bRaf IC50) was 100 to 1000 nM in each case.

`COC(=O)Nc1nc2ccc(C3(C)c4ccccc4C(=O)N3c3cccc(Br)c3)cc2[nH]1` (centres unmarked) [Entry 320, methyl {6-[2-(3-bromophenyl)-1-methyl-3-oxo-2,3-dihydro-1H-isoindol-1-yl]-1H-benzimidazol-2-yl}carbamate]: the 50% inhibitory concentration (IC50) in test [1] (setting [3]) and in test [2] (setting [4]) was less than 100 nM throughout.

Take `CC(C)(C)n1c(N)nc2cc(C3(O)c4ccccc4C(=O)N3Cc3ccccc3)ccc21` (centres unmarked) [Entry 100, 3-[2-amino-1-(1,1-dimethylethyl)-1H-benzimidazol-5-yl]-3-hydroxy-2-(phenylmethyl)-2,3-dihydro-1H-isoindol-1-one]: the concentration for half-maximal inhibition (IC50) in test [1] (read-out: cRaf-1 IC50) and in test [2] (read-out: bRaf IC50) was not below 10000 nM each time.

Consider `O=C1COc2ccc(C3(O)c4ccccc4C(=O)N3C3CCNCC3)cc2N1` (centres unmarked) [Entry 88, 6-(1-hydroxy-3-oxo-2-piperidin-4-yl-2,3-dihydro-1H-isoindol-1-yl)-2H-1,4-benzoxazin-3(4H)-one], for which the IC50 in test [1] (read-out: cRaf-1 IC50) and in test [2] (read-out: bRaf IC50) was not below 10000 nM in each case.

With `O=C1COc2ccc(C3(O)c4ccccc4C(=O)N3Cc3cc(Br)ccc3F)cc2N1` (centres unmarked) [Entry 51, 6-{2-[(5-bromo-2-fluorophenyl)methyl]-1-hydroxy-3-oxo-2,3-dihydro-1H-isoindol-1-yl}-2H-1,4-benzoxazin-3(4H)-one], the half-maximal inhibitory concentration (IC50) in test [1] (read-out: cRaf-1 IC50) and in test [2] (read-out: bRaf IC50) was 1000 to 10000 nM each time.

For the compound `COC(=O)Nc1nc2cc(C3(O)c4ccccc4C(=O)N3c3ccccc3Oc3ccccc3)ccc2[nH]1` (centres unmarked) [Entry 342, methyl (5-{1-hydroxy-3-oxo-2-[2-(phenyloxy)phenyl]-2,3-dihydro-1H-isoindol-1-yl}-1H-benzimidazol-2-yl)carbamate], the 50% inhibitory concentration (IC50) in test [1] (setting [3]) and in test [2] (setting [4]) was 100 to 1000 nM each time.

On to `COC(=O)Nc1nc2cc(C(=O)c3ccccc3C(=O)OCc3ccccc3)ccc2[nH]1` [Entry 93, Phenylmethyl 2-[(2-{[(methyloxy)carbonyl]amino}-1H-benzimidazol-5-yl)carbonyl]benzoate], for which the IC50 in test [1] (read-out: cRaf-1 IC50) and in test [2] (read-out: bRaf IC50) was 100 to 1000 nM each time.

As for `O=C1c2ccccc2C(O)(c2ccc3[nH]c(Nc4nccs4)nc3c2)N1c1cccc(Cl)c1F` (centres unmarked) [Entry 356, 2-(3-chloro-2-fluorophenyl)-3-hydroxy-3-[2-(1,3-thiazol-2-ylamino)-1H-benzimidazol-5-yl]-2,3-dihydro-1H-isoindol-1-one], the IC50 in test [1] (setting [3]) and in test [2] (setting [4]) was less than 100 nM in each case.

In the case of `COC(=O)Nc1nc2ccc(C(=O)c3ccccc3C(=O)Nc3cccc(C(F)(F)F)c3)cc2[nH]1` [Entry 398, methyl (6-{[2-({[3-(trifluoromethyl)phenyl]amino}carbonyl)phenyl]carbonyl}-1H-benzimidazol-2-yl)carbamate], the IC50 in test [1] (setting [3]) and in test [2] (setting [4]) was less than 100 nM throughout.

Take `O=C(Nc1nc2ccc(C3(O)c4ccccc4C(=O)N3c3cccc(Cl)c3F)cc2[nH]1)OCC1CCCN2CCCCC12` (centres unmarked) [Entry 304, octahydro-2H-quinolizin-1-ylmethyl {6-[2-(3-chloro-2-fluorophenyl)-1-hydroxy-3-oxo-2,3-dihydro-1H-isoindol-1-yl]-1H-benzimidazol-2-yl}carbamate]: the IC50 in test [1] (setting [3]) and in test [2] (setting [4]) was less than 100 nM in each case.

As to `O=C1COc2ccc(C3(O)c4ccccc4C(=O)N3c3cccc(CO)c3)cc2N1` (centres unmarked) [Entry 82, 6-{1-hydroxy-2-[3-(hydroxymethyl)phenyl]-3-oxo-2,3-dihydro-1H-isoindol-1-yl}-2H-1,4-benzoxazin-3(4H)-one], the 50% inhibitory concentration (IC50) in test [1] (read-out: cRaf-1 IC50) and in test [2] (read-out: bRaf IC50) was 1000 to 10000 nM throughout.

Consider `CCN(CC)CCCC(=O)Nc1nc2cc(C3(O)c4ccccc4C(=O)N3Cc3ccccc3)ccc2[nH]1` (centres unmarked) [Entry 277, 4-(diethylamino)-N-{5-[1-hydroxy-3-oxo-2-(phenylmethyl)-2,3-dihydro-1H-isoindol-1-yl]-1H-benzimidazol-2-yl}butanamide], for which the IC50 in test [1] (setting [3]) and in test [2] (setting [4]) was less than 100 nM each time.

Turning to `COC(=O)Nc1nc2cc(C3(O)c4ccccc4C(=O)N3C3CCCCC3)ccc2[nH]1` (centres unmarked) [Entry 167, methyl [5-(2-cyclohexyl-1-hydroxy-3-oxo-2,3-dihydro-1H-isoindol-1-yl)-1H-benzimidazol-2-yl]carbamate], the IC50 in test [1] (read-out: cRaf-1 IC50) and in test [2] (read-out: bRaf IC50) was less than 100 nM each time.

On to `O=C(CCN1CCCCC1)Nc1nc2cc(C3(O)c4ccccc4C(=O)N3Cc3ccccc3)ccc2[nH]1` (centres unmarked) [Entry 274, N-{5-[1-hydroxy-3-oxo-2-(phenylmethyl)-2,3-dihydro-1H-isoindol-1-yl]-1H-benzimidazol-2-yl}-3-piperidin-1-ylpropanamide], for which the 50% inhibitory concentration (IC50) in test [1] (setting [3]) and in test [2] (setting [4]) was less than 100 nM each time.

On to `COC(=O)Nc1nc2cc(C3(O)c4ccccc4C(=O)N3c3cccc(Cc4ccccc4)c3)ccc2[nH]1` (centres unmarked) [Entry 232, methyl (5-{1-hydroxy-3-oxo-2-[3-(phenylmethyl)phenyl]-2,3-dihydro-1H-isoindol-1-yl}-1H-benzimidazol-2-yl)carbamate], for which the half-maximal inhibitory concentration (IC50) in test [1] (read-out: cRaf-1 IC50) and in test [2] (read-out: bRaf IC50) was less than 100 nM throughout.

As for `CN(C)Cc1cccc(N2C(=O)c3ccccc3C2(O)c2ccc3c(c2)NC(=O)CO3)c1` (centres unmarked) [Entry 86, 6-(2-{3-[(dimethylamino)methyl]phenyl}-1-hydroxy-3-oxo-2,3-dihydro-1H-isoindol-1-yl)-2H-1,4-benzoxazin-3(4H)-one], the IC50 in test [1] (read-out: cRaf-1 IC50) and in test [2] (read-out: bRaf IC50) was 1000 to 10000 nM in each case.

For `COC(=O)Nc1nc2cc(C3(O)c4ccccc4C(=O)N3c3cccc(C4CCNCC4)c3)ccc2[nH]1` (centres unmarked) [Entry 256, methyl {5-[1-hydroxy-3-oxo-2-(3-piperidin-4-ylphenyl)-2,3-dihydro-1H-isoindol-1-yl]-1H-benzimidazol-2-yl}carbamate], the half-inhibitory concentration (IC50) in test [1] (read-out: cRaf-1 IC50) and in test [2] (read-out: bRaf IC50) was 100 to 1000 nM throughout.

For the compound `O=C(Nc1nc2cc(C3(O)c4ccccc4C(=O)N3Cc3ccccc3)ccc2[nH]1)OCC1CCNCC1` (centres unmarked) [Entry 152, piperidin-4-ylmethyl {5-[1-hydroxy-3-oxo-2-(phenylmethyl)-2,3-dihydro-1H-isoindol-1-yl]-1H-benzimidazol-2-yl}carbamate], the values for the half-maximal inhibitory concentration (IC50) in test [1] (read-out: cRaf-1 IC50) and in test [2] (read-out: bRaf IC50) were 100 to 1000 nM and less than 100 nM, respectively.

As to `CCOC(=O)Nc1nc2cc(C3(O)c4ccccc4C(=O)N3c3cccc(Cl)c3F)ccc2o1` (centres unmarked) [Entry 357, ethyl {5-[2-(3-chloro-2-fluorophenyl)-1-hydroxy-3-oxo-2,3-dihydro-1H-isoindol-1-yl]-1,3-benzoxazol-2-yl}carbamate], the half-maximal inhibitory concentration (IC50) was 100 to 1000 nM in test [1] (setting [3]) and less than 100 nM in test [2] (setting [4]).

`COC(=O)Nc1nc2cc(C3(O)c4ccccc4C(=O)N3c3ccc(F)c(F)c3)ccc2[nH]1` (centres unmarked) [Entry 164, methyl {5-[2-(3,4-difluorophenyl)-1-hydroxy-3-oxo-2,3-dihydro-1H-isoindol-1-yl]-1H-benzimidazol-2-yl}carbamate]: the IC50 in test [1] (read-out: cRaf-1 IC50) and in test [2] (read-out: bRaf IC50) was less than 100 nM each time.

For the compound `COC(=O)Nc1nc2cc(C3c4ccccc4C(=O)N3c3cccc(Br)c3)ccc2[nH]1` (centres unmarked) [Entry 281, methyl {5-[2-(3-bromophenyl)-3-oxo-2,3-dihydro-1H-isoindol-1-yl]-1H-benzimidazol-2-yl}carbamate], the half-inhibitory concentration (IC50) in test [1] (setting [3]) and in test [2] (setting [4]) was less than 100 nM in each case.
